Earlier results in US6770729B2, “Polymer compositions containing bioactive agents and methods for their use” (priority 2002, dated 2004).

Target: avidin (Gallus gallus, UniProt P02701)
Sequence (P02701 25-152): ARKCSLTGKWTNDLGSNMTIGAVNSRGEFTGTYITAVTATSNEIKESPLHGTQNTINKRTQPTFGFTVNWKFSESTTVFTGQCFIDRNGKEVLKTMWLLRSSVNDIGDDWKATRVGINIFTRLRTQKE

In the case of O=C(O)CCCC[C@@H]1SC[C@@H]2NC(=O)N[C@@H]21 [biotin], the binding constant (avidin tetramer binds 4 biotin molecules in solution, noncovalent interaction) is listed as “about 10^15 M^−1” and the half-life in vivo (avidin-biotin interaction, dissociation of the complex) is listed as “about 89 days”.
